Data: PubChem BioAssay (NCI)
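The compound was tested at five concentrations on cells cultured in 96-well plates, with a 48-hour exposure period. GI50: concentration for 50% inhibition of growth. At the TGI there is no net growth.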

What was measured:
Experiment in all cases: DTP human tumour cell line panel, 48 h
786-0 renal = test system: 786-0 renal
A498 renal = test system: A498 renal
A549 NSCLC = test system: A549 NSCLC
ACHN renal = test system: ACHN renal
BT-549 breast = test system: BT-549 breast
CAKI-1 renal = test system: CAKI-1 renal
CCRF-CEM leukemia = test system: CCRF-CEM leukemia
COLO 205 colon = test system: COLO 205 colon
DU-145 prostate = test system: DU-145 prostate
EKVX NSCLC = test system: EKVX NSCLC
HCC-2998 colon = test system: HCC-2998 colon
HCT-116 colon = test system: HCT-116 colon
HCT-15 colon = test system: HCT-15 colon
HL-60(TB) leukemia = test system: HL-60(TB) leukemia
HOP-62 NSCLC = test system: HOP-62 NSCLC
HS 578T breast = test system: HS 578T breast
HT29 colon = test system: HT29 colon
IGROV1 ovarian = test system: IGROV1 ovarian
K-562 leukemia = test system: K-562 leukemia
KM12 colon = test system: KM12 colon
LOX IMVI melanoma = test system: LOX IMVI melanoma
M14 melanoma = test system: M14 melanoma
MALME-3M melanoma = test system: MALME-3M melanoma
MCF7 breast = test system: MCF7 breast
MDA-MB-231 breast = test system: MDA-MB-231 breast
MDA-MB-435 = test system: MDA-MB-435
MOLT-4 leukemia = test system: MOLT-4 leukemia
NCI-H226 lung = test system: NCI-H226 lung
NCI-H23 lung = test system: NCI-H23 lung
NCI-H460 lung = test system: NCI-H460 lung
NCI/ADR-RES ovarian = test system: NCI/ADR-RES ovarian
OVCAR-3 ovarian = test system: OVCAR-3 ovarian
OVCAR-4 ovarian = test system: OVCAR-4 ovarian
OVCAR-5 ovarian = test system: OVCAR-5 ovarian
OVCAR-8 ovarian = test system: OVCAR-8 ovarian
PC-3 prostate = test system: PC-3 prostate
RPMI-8226 leukemia = test system: RPMI-8226 leukemia
RXF 393 renal = test system: RXF 393 renal
SF-268 CNS = test system: SF-268 CNS
SF-295 CNS = test system: SF-295 CNS
SF-539 CNS = test system: SF-539 CNS
SK-MEL-2 melanoma = test system: SK-MEL-2 melanoma
SK-MEL-28 melanoma = test system: SK-MEL-28 melanoma
SK-MEL-5 melanoma = test system: SK-MEL-5 melanoma
SK-OV-3 ovarian = test system: SK-OV-3 ovarian
SN12C renal = test system: SN12C renal
SNB-19 CNS = test system: SNB-19 CNS
SNB-75 CNS = test system: SNB-75 CNS
SR leukemia = test system: SR leukemia
SW-620 colon = test system: SW-620 colon
T-47D breast = test system: T-47D breast
TK-10 renal = test system: TK-10 renal
U251 CNS = test system: U251 CNS
UACC-257 melanoma = test system: UACC-257 melanoma
UACC-62 melanoma = test system: UACC-62 melanoma
UO-31 renal = test system: UO-31 renal
NCI-H522 lung = test system: NCI-H522 lung

O=C(OC(=C(c1ccccc1)c1ccccc1)N1CCCC1=S)C(c1ccccc1)c1ccccc1
TGI (786-0 renal): > 10 µM | TGI (A498 renal): > 10 µM | TGI (A549 NSCLC): > 10 µM | TGI (ACHN renal): > 10 µM | TGI (BT-549 breast): > 10 µM | TGI (CAKI-1 renal): > 10 µM | TGI (CCRF-CEM leukemia): > 10 µM | TGI (COLO 205 colon): 5.5 µM | TGI (DU-145 prostate): > 10 µM | TGI (EKVX NSCLC): > 10 µM | TGI (HCC-2998 colon): > 10 µM | TGI (HCT-116 colon): > 10 µM | TGI (HCT-15 colon): > 10 µM | TGI (HL-60(TB) leukemia): > 10 µM | TGI (HOP-62 NSCLC): > 10 µM | TGI (HS 578T breast): > 10 µM | TGI (HT29 colon): > 10 µM | TGI (IGROV1 ovarian): > 10 µM | TGI (K-562 leukemia): > 10 µM | TGI (KM12 colon): > 10 µM | TGI (LOX IMVI melanoma): > 10 µM | TGI (M14 melanoma): > 10 µM | TGI (MALME-3M melanoma): > 10 µM | TGI (MCF7 breast): > 10 µM | TGI (MDA-MB-231 breast): > 10 µM | TGI (MDA-MB-435): > 10 µM | TGI (MOLT-4 leukemia): > 10 µM | TGI (NCI-H226 lung): > 10 µM | TGI (NCI-H23 lung): > 10 µM | TGI (NCI-H460 lung): > 10 µM | TGI (NCI/ADR-RES ovarian): > 10 µM | TGI (OVCAR-3 ovarian): > 10 µM | TGI (OVCAR-4 ovarian): > 10 µM | TGI (OVCAR-5 ovarian): > 10 µM | TGI (OVCAR-8 ovarian): > 10 µM | TGI (PC-3 prostate): > 10 µM | TGI (RPMI-8226 leukemia): > 10 µM | TGI (RXF 393 renal): > 10 µM | TGI (SF-268 CNS): > 10 µM | TGI (SF-295 CNS): > 10 µM | TGI (SF-539 CNS): > 10 µM | TGI (SK-MEL-2 melanoma): > 10 µM | TGI (SK-MEL-28 melanoma): > 10 µM | TGI (SK-MEL-5 melanoma): > 10 µM | TGI (SK-OV-3 ovarian): > 10 µM | TGI (SN12C renal): > 10 µM | TGI (SNB-19 CNS): > 10 µM | TGI (SNB-75 CNS): > 10 µM | TGI (SR leukemia): > 10 µM | TGI (SW-620 colon): > 10 µM | TGI (T-47D breast): > 10 µM | TGI (TK-10 renal): > 10 µM | TGI (U251 CNS): > 10 µM | TGI (UACC-257 melanoma): > 10 µM | TGI (UACC-62 melanoma): > 10 µM | TGI (UO-31 renal): > 10 µM

C[C@@H]1C=C2C(=O)O[C@@H]3CC[C@H](C1)[C@]23O
GI50 (786-0 renal): 4.29 µM | TGI (786-0 renal): 17.7 µM | TGI (A498 renal): 38.3 µM | GI50 (A549 NSCLC): 12.7 µM | TGI (A549 NSCLC): 47 µM | GI50 (ACHN renal): 3.93 µM | TGI (ACHN renal): 16.9 µM | GI50 (BT-549 breast): 4.4 µM | TGI (BT-549 breast): 17.3 µM | TGI (CAKI-1 renal): 12.7 µM | GI50 (CCRF-CEM leukemia): 2660 nM | TGI (CCRF-CEM leukemia): 11.5 µM | GI50 (COLO 205 colon): 4.64 µM | TGI (COLO 205 colon): 15.7 µM | GI50 (DU-145 prostate): 2140 nM | TGI (DU-145 prostate): 5.78 µM | GI50 (HCC-2998 colon): 16.9 µM | TGI (HCC-2998 colon): 32.9 µM | GI50 (HCT-116 colon): 3.13 µM | TGI (HCT-116 colon): 13.8 µM | GI50 (HCT-15 colon): 3000 nM | TGI (HCT-15 colon): 18.1 µM | TGI (HL-60(TB) leukemia): 5.71 µM | GI50 (HOP-62 NSCLC): 17.8 µM | TGI (HOP-62 NSCLC): 63.1 µM | GI50 (HS 578T breast): 12.7 µM | TGI (HS 578T breast): > 100 µM | GI50 (HT29 colon): 3.46 µM | TGI (HT29 colon): 13.4 µM | GI50 (IGROV1 ovarian): 2870 nM | TGI (IGROV1 ovarian): 10.4 µM | GI50 (K-562 leukemia): 2700 nM | TGI (K-562 leukemia): 34.6 µM | GI50 (KM12 colon): 21.8 µM | TGI (KM12 colon): 61.6 µM | GI50 (LOX IMVI melanoma): 3.33 µM | TGI (LOX IMVI melanoma): 13.3 µM | GI50 (M14 melanoma): 4.28 µM | TGI (M14 melanoma): 22.8 µM | GI50 (MALME-3M melanoma): 4.18 µM | TGI (MALME-3M melanoma): 23.3 µM | GI50 (MCF7 breast): 2500 nM | TGI (MCF7 breast): 13.3 µM | GI50 (MDA-MB-231 breast): 3.96 µM | TGI (MDA-MB-231 breast): 17.4 µM | GI50 (MDA-MB-435): 3.39 µM | TGI (MDA-MB-435): 13.7 µM | GI50 (MOLT-4 leukemia): 3.08 µM | TGI (MOLT-4 leukemia): 21 µM | GI50 (NCI-H226 lung): 7.02 µM | TGI (NCI-H226 lung): 40 µM | GI50 (NCI-H23 lung): 4.33 µM | TGI (NCI-H23 lung): 23 µM | TGI (NCI-H460 lung): 32 µM | GI50 (NCI-H522 lung): 2240 nM | TGI (NCI-H522 lung): 9.43 µM | GI50 (NCI/ADR-RES ovarian): 11.9 µM | TGI (NCI/ADR-RES ovarian): 95.8 µM | GI50 (OVCAR-3 ovarian): 3.44 µM | TGI (OVCAR-3 ovarian): 11.1 µM | GI50 (OVCAR-4 ovarian): 5.45 µM | TGI (OVCAR-4 ovarian): 45.3 µM | GI50 (OVCAR-5 ovarian): 2820 nM | TGI (OVCAR-5 ovarian): 10.8 µM | GI50 (OVCAR-8 ovarian): 4.04 µM | TGI (OVCAR-8 ovarian): 28.6 µM | GI50 (PC-3 prostate): 3.68 µM | TGI (PC-3 prostate): 14.9 µM | GI50 (RPMI-8226 leukemia): 2930 nM | TGI (RPMI-8226 leukemia): 10.7 µM | TGI (RXF 393 renal): 7.97 µM | GI50 (SF-268 CNS): 5.24 µM | TGI (SF-268 CNS): 30.4 µM | GI50 (SF-295 CNS): 13.6 µM | TGI (SF-295 CNS): 35.3 µM | GI50 (SF-539 CNS): 3.18 µM | TGI (SF-539 CNS): 11.9 µM | TGI (SK-MEL-2 melanoma): 11.4 µM | GI50 (SK-MEL-28 melanoma): 6.17 µM | TGI (SK-MEL-28 melanoma): 25.8 µM | GI50 (SK-MEL-5 melanoma): 10.9 µM | TGI (SK-MEL-5 melanoma): 24 µM | GI50 (SK-OV-3 ovarian): 15.5 µM | TGI (SK-OV-3 ovarian): 64.3 µM | GI50 (SN12C renal): 5.65 µM | TGI (SN12C renal): 31.2 µM | GI50 (SNB-19 CNS): 22.9 µM | TGI (SNB-19 CNS): 93.8 µM | GI50 (SNB-75 CNS): 3.33 µM | TGI (SNB-75 CNS): 20.2 µM | GI50 (SR leukemia): 3.51 µM | TGI (SR leukemia): 19.6 µM | TGI (SW-620 colon): 12.8 µM | GI50 (T-47D breast): 3.02 µM | TGI (T-47D breast): 15.1 µM | GI50 (U251 CNS): 13.9 µM | TGI (U251 CNS): 27.5 µM | GI50 (UACC-257 melanoma): 2330 nM | TGI (UACC-257 melanoma): 16.2 µM | GI50 (UACC-62 melanoma): 4.78 µM | TGI (UACC-62 melanoma): 19.6 µM | GI50 (UO-31 renal): 3.74 µM | TGI (UO-31 renal): 16.7 µM
